Laboratory results as given in ChEMBL document CHEMBL5465560, “Selectivity Literature for EUbOPEN Chemogenomic Library” (2024).
One block for each compound: values may come before it.

Legend:
[1] = molecular target: T1, Dual serine/threonine and tyrosine protein kinase (Homo sapiens) (UniProt Q6XUX3); test: Selectivity interaction (KinomeScan (DiscoverX)) EUB0000045b DSTYK
T1 sequence (whole entry): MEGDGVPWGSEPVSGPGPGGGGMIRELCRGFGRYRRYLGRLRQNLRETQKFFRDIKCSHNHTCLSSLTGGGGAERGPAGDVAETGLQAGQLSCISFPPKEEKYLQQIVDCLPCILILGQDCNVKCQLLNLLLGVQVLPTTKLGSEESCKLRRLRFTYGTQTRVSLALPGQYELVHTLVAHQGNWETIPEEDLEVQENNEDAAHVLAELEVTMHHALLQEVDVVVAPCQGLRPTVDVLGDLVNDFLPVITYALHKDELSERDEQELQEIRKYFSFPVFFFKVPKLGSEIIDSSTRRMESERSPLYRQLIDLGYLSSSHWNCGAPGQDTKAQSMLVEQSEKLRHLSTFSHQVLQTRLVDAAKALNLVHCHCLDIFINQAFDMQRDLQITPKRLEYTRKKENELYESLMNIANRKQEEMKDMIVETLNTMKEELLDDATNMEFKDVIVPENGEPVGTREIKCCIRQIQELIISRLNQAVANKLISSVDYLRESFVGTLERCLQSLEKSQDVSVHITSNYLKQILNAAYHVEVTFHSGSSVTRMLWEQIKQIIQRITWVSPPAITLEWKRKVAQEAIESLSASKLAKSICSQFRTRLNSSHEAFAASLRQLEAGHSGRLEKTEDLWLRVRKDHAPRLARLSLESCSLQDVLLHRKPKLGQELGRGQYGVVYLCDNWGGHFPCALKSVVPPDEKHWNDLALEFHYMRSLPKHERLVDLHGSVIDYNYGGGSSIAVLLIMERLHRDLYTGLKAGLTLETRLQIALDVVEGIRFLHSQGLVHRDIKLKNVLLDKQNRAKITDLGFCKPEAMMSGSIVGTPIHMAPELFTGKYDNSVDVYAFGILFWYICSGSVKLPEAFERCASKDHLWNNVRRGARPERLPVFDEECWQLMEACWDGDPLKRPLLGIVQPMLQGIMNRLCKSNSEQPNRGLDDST

[2] = molecular target: T2, Serine/threonine-protein kinase Nek9 (Homo sapiens) (UniProt Q8TD19); test: Selectivity interaction (KinomeScan (DiscoverX)) EUB0000595a NEK9; conditions: at 10 µM
T2 sequence (whole entry): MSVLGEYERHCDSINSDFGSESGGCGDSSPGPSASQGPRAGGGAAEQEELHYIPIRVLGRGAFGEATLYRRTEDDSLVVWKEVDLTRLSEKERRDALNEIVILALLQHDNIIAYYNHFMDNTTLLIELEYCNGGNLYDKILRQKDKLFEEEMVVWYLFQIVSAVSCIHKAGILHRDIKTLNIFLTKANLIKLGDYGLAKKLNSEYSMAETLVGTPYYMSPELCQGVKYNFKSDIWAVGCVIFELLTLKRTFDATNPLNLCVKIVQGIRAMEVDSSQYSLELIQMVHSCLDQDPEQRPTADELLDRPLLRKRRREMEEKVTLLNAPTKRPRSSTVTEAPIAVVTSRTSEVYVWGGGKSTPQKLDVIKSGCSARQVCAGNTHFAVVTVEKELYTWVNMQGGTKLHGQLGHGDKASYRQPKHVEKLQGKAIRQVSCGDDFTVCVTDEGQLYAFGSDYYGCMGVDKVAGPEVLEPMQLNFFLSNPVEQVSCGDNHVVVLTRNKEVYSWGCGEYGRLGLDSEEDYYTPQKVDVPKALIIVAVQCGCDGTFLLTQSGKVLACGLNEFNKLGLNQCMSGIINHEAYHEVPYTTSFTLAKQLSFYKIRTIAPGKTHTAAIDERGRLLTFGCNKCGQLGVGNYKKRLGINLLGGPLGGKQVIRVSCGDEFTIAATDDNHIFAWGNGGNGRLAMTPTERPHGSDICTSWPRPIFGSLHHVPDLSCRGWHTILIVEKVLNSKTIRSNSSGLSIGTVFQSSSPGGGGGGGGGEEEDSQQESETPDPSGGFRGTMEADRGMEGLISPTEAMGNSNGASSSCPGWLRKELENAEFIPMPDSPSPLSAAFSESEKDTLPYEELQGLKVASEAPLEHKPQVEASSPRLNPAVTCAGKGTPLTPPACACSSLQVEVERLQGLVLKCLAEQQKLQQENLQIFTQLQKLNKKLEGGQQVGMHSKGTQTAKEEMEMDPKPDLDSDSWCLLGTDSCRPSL

[3] = molecular target: T3, Protein arginine N-methyltransferase 9 (Homo sapiens, UniProt Q6P2P2); test: Selectivity interaction (Scintillation proximity assays) EUB0000230b PRMT9
T3 sequence (Q6P2P2 whole entry): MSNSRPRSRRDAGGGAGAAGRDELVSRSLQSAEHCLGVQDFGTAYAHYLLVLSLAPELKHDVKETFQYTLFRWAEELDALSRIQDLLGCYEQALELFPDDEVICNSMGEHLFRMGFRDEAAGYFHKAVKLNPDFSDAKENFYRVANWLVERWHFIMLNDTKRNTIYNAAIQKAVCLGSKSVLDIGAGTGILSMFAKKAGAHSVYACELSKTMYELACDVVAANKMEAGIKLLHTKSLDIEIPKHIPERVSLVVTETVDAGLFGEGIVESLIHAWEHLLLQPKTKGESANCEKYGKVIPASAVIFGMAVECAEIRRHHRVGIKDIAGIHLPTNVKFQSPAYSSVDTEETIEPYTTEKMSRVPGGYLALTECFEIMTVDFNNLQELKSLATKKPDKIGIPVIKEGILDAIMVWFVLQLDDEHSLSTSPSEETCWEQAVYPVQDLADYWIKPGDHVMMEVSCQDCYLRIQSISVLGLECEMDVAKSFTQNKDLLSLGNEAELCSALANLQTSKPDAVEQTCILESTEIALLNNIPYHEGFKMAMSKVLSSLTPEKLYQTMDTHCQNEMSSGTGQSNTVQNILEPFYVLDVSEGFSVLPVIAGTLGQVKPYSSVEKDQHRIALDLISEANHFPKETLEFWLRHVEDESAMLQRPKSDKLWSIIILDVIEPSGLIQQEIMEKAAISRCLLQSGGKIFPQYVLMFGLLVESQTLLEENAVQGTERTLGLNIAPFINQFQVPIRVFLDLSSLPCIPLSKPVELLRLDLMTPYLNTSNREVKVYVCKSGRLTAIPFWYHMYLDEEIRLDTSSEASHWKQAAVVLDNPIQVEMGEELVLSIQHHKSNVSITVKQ

Structure (SMILES): C=CC(=O)Nc1cc(-n2c(=O)ccc3cnc4ccc(-c5ccc(NS(C)(=O)=O)cc5)cc4c32)ccc1C
- % of control ([1]; at 1 µM): 100%
- % of control ([1]; at 10 µM): 100%

Structure (SMILES): COCC(=O)NC/C=C/c1ccc2ncnc(Nc3ccc(Oc4ccc(C)nc4)c(C)c3)c2c1 [CP-724714]
- % of control [2]: 82%

- IC50 [3]: > 10 µM
Structure (SMILES): CNCCN1CCC(c2cc(CN(C)C(=O)c3cccc(Oc4ccccc4)c3)ccn2)CC1
